From PMC9101188, “Human α-Defensin-6 Neutralizes Clostridioides difficile Toxins TcdA and TcdB by Direct Binding” (International Journal of Molecular Sciences, 2022)

Assays:
CaCo-2 cells [1] = tested on: CaCo-2 cells
bacteria = settings: cited from earlier work
Source text: The benchmark for treating CDIs is still the use of some specific antibiotics such as vancomycin, metronidazole or fidaxomicin [20]. More and more attention is also being paid to the direct inactivation of the secreted toxins, for example by using anti-toxin-antibodies such as bezlotoxumab or actoxumab. Following the approach of directly inactivating the secreted toxins and based on previous findings of our group and of others, we investigated the effects of human endogenous antimicrobial peptides on the C. difficile toxins TcdA and TcdB. […] The administration of α-def-6 protected human cells from TcdB, but also from the closely related TcdA and the clinically more relevant combination of both TcdA and TcdB. Exemplarily, the protective effect could be confirmed for TcdB in vivo using the zebrafish embryo ...

CaCo-2 cells [2] = tested on: CaCo-2 cells; remark: listed apart in the source
Vero cells = assay: Aggregation of TcdB-DL488 and cell morphology in Vero cells; format: cell-based, African green monkey; settings: TcdB-DL488 22 nM + α-def-6 6 µM, 0.5 h, 37 °C (n = 2)
Description: (§1) Cells were fixed and permeabilized. […] Scale bars correspond to 50 µm. […] TcdB was detected.
Cells were grown in their respective media under humidified conditions at 37 °C and 5% CO2. Vero cells (African green monkey kidney cells; DSMZ, Braunschweig, Germany) were maintained in Gibco minimum essential medium (MEM; Thermo Fisher Scientific, Waltham, MA, USA) supplemented with 10% fetal calf serum (FCS; Thermo Fisher Scientific, Waltham, MA, USA), 1 mM sodium pyruvate (Thermo Fisher Scientific, Waltham, MA, USA), 2 mM L-glutamine (PAN-Biotech, Aidenbach, Germany), 0.1 mM non-essential amino acids (Thermo Fisher Scientific, Waltham, MA, USA) and 100 U/mL penicillin and 100 µg/mL streptomycin (both Thermo Fisher Scientific, Waltham, MA, USA). CaCo-2 cells (human epithelial colorectal adenocarcinoma cells, HTB-37; ATCC, Manassas, VA, USA) were cultured in Gibco Dulbecco’s Modified Eagle Medium (DMEM; Thermo Fisher Scientific, Waltham, MA, USA) plus 10% FCS, 1 mM sodium pyruvate, 0.1 mM non-essential amino acids and 100 U/mL penicillin and 100 µg/mL streptomycin.
Simultaneously the same volume of PBS was exposed to DyLight^TM 488 NHS-Ester to serve as a negative control in experiments. To remove free fluorescence dye, the samples were rebuffered by passing through Zeba^TM Spin Desalting Columns via centrifugation. […]

TcdB-DL488 = target: T1, TcdB-DL488 (Clostridioides difficile, UniProt P18177); assay: Aggregation of TcdB-DL488 over time in the absence of cells (fluorescence microscopy); set-up: species or system C. difficile VPI 10463; settings: α-def-6 6 µM, TcdB-DL488 30 nM in PBS, 37 °C
T1 construct: The native toxins TcdA and TcdB from C. difficile VPI 10463 were expressed and purified; made in house; host or cells: C. difficile VPI 10463 (inferred from "native toxins")
T1 sequence (P18177 whole entry): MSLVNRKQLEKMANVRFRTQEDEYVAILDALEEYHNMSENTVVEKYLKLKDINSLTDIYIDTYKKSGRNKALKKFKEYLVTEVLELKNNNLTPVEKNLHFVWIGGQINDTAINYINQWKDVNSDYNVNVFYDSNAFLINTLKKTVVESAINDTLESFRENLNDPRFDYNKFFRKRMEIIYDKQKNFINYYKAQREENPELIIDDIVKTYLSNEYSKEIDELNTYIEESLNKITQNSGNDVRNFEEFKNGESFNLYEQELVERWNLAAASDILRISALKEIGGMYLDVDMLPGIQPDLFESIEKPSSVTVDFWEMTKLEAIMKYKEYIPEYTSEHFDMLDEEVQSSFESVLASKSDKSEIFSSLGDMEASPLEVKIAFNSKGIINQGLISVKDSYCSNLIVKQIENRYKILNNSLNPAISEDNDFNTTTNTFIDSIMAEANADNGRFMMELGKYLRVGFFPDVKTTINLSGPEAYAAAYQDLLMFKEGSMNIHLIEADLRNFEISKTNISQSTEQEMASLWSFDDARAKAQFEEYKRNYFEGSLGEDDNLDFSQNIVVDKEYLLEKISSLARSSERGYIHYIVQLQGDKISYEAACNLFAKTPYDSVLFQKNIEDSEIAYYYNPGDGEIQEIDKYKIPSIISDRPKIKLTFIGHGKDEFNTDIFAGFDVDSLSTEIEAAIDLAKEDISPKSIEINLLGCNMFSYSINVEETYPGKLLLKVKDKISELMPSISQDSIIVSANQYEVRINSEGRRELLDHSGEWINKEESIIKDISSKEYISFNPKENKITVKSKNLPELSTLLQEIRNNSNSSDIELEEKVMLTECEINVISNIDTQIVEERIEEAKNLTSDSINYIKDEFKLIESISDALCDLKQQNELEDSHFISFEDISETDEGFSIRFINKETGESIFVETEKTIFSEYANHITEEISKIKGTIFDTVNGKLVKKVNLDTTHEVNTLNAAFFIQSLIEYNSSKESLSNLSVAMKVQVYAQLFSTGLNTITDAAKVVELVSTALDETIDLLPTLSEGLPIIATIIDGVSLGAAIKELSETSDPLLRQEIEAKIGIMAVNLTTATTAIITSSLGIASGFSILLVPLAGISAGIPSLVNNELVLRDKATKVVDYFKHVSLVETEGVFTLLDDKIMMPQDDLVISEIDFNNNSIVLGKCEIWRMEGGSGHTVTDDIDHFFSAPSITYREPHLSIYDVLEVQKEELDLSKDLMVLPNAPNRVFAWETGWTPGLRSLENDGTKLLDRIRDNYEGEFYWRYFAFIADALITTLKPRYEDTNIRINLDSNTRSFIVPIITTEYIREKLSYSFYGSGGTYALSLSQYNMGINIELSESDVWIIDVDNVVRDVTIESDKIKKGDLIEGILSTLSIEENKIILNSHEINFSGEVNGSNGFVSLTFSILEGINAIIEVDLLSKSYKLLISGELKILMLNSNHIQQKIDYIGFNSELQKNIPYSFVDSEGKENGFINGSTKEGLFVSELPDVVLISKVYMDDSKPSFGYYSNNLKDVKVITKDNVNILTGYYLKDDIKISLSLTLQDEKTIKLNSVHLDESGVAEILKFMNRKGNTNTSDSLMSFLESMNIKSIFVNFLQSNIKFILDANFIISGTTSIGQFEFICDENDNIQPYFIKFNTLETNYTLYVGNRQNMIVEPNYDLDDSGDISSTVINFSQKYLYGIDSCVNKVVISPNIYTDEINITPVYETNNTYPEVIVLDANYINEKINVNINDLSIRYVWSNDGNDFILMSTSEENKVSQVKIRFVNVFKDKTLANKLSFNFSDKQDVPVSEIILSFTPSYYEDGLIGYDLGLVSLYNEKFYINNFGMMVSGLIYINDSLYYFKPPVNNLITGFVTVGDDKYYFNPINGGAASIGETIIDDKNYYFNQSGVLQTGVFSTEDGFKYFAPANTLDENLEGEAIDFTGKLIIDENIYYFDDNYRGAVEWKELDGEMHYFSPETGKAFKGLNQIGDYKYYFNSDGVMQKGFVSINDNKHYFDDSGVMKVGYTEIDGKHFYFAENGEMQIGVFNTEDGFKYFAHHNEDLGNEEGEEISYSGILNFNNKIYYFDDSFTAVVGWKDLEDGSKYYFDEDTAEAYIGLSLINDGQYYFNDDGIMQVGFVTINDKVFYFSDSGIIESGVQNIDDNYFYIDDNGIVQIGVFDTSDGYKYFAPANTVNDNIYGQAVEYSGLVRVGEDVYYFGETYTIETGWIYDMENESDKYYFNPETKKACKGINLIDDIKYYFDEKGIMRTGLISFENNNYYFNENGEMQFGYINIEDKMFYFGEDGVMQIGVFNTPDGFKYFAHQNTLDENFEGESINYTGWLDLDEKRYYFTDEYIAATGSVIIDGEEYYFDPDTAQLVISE
Description: as §1
Simultaneously the same volume of PBS was exposed to DyLight^TM 488 NHS-Ester to serve as a negative control in experiments. To remove free fluorescence dye, the samples were rebuffered by passing through Zeba^TM Spin Desalting Columns via centrifugation.
Aggregation was allowed to proceed for 30 min at 37 °C. Images were taken every second for the first 5 min and every 10 s for additional 25 min. Images were processed using ImageJ.

zebrafish embryos = settings: in vivo
Rac1 = format: cell-based, African green monkey

CC[C@H](C)[C@@H]1NC(=O)CNC(=O)[C@H](CCSC)NC(=O)[C@H](C(C)C)NC(=O)[C@H]([C@@H](C)O)NC(=O)[C@@H]2CSSC[C@@H]3NC(=O)[C@H](Cc4c[nH]cn4)NC(=O)[C@@H](NC(=O)[C@@H](NC(=O)[C@H](Cc4ccccc4)NC(=O)[C@H](C)N)[C@@H](C)O)CSSC[C@@H](C(=O)N[C@@H](CC(C)C)C(=O)O)NC(=O)[C@H](CSSC[C@H](NC(=O)[C@H](CO)NC(=O)[C@H](CCCNC(=N)N)NC(=O)[C@H](CCCNC(=N)N)NC3=O)C(=O)N[C@@H](Cc3ccc(O)cc3)C(=O)N[C@@H](CO)C(=O)N[C@@H]([C@@H](C)O)C(=O)N[C@@H](CCC(=O)O)C(=O)N[C@@H](Cc3ccc(O)cc3)C(=O)N[C@@H](CO)C(=O)N[C@@H](Cc3ccc(O)cc3)C(=O)NCC(=O)N[C@@H]([C@@H](C)O)C(=O)N2)NC(=O)[C@H](Cc2ccccc2)NC(=O)[C@H](CCCNC(=N)N)NC(=O)[C@H](Cc2c[nH]cn2)NC(=O)[C@H](CC(N)=O)NC1=O [α-def-6]
amount of rounded CaCo-2 cells, TcdA + TcdB (CaCo-2 cells [1]): reduced amount of rounded CaCo-2 cells was visible for at least 6 h | microbiocidal activity (bacteria; ref [27]): negligible microbiocidal activity | biocidal / antimicrobial activity (bacteria; ref [46]): surprisingly low antimicrobial activity | amount of rounded CaCo-2 cells, TcdA (CaCo-2 cells [2]): reduced amount of rounded CaCo-2 cells was visible for at least 6 h | morphological changes of TcdB-DL488-treated cells (Vero cells): no morphological changes | toxin-defensin aggregates in the presence of cells (Vero cells): toxin-defensins-aggregates were also visible | time of formation of toxin-defensin aggregates (TcdB-DL488): within a few seconds to minutes | formation of toxin-defensin complexes (TcdB-DL488; 0.5 h, no cells (n ≥ 2)): very fast and distinct formation of large toxin-defensin complexes | effect on TcdB-induced cytotoxicity and cardiotoxicity (zebrafish embryos): very efficiently reversed both the cytotoxic and cardiotoxic effects of TcdB | toxicity of α-def-6 alone (zebrafish embryos): did not show any toxicity | glucosylation of Rac1 by TcdA (Rac1): clearly less Rac1 was glucosylated
